Assay results as given in article PMC9765437, “Antibiotic Acyldepsipeptides Stimulate the Streptomyces Clp-ATPase/ClpP Complex for Accelerated Proteolysis” (mBio, 2022).
Starred links: 1 amine or outer side, 2 acyl side, 3 side chain; linkers in the order of their positions; H or OH if unused. Positions of bridges follow the written chain, without caps; N, C: chain ends. Non-standard residues stand in square brackets, D forms with d. Residues, ends and D or L forms follow the SMILES beside them. *: point of attachment. Octatrienoyl(2E,4E,6E) = C/C=C/C=C/C=C/C(=O)*; Pro(4R-Me) = C[C@H]1CN[C@H](C(=O)O)C1; AMC = Cc1cc(=O)oc2cc(N*)ccc12; Suc = O=C(CCC(=O)[*:2])[*:1]; NMeA = CN[C@@H](C)C(=O)O

Experiments:
[1] = biological target: T1, ClpP1P2 (Streptomyces hawaiiensis, UniProt A0A6G5RDH7); test: peptidase activation assay, Suc-LY-AMC; format: biochemical; details: activator binding via ClpP1; 10 μM ADEP1, 4 μM total ClpP, pH 7.5, 30°C
T1 construct: gene clpP; untagged full-length ClpP1 mixed with C-terminally His6-tagged full-length ClpP2, expressed in E. coli SG1146a; heterotetradecamer of two homoheptameric rings; with ATP-dependent Clp protease proteolytic subunit 2

[2] = biological target: T2, ClpC1 (Streptomyces hawaiiensis, UniProt A0A6G5RIJ6); details: 100 nM ATP, beta-casein, 30°C; ClpC1 alone and with ClpP1P2; unaffected by ADEP1
T2 construct: gene CEB94_23085
T2 sequence (A0A6G5RIJ6 1-841): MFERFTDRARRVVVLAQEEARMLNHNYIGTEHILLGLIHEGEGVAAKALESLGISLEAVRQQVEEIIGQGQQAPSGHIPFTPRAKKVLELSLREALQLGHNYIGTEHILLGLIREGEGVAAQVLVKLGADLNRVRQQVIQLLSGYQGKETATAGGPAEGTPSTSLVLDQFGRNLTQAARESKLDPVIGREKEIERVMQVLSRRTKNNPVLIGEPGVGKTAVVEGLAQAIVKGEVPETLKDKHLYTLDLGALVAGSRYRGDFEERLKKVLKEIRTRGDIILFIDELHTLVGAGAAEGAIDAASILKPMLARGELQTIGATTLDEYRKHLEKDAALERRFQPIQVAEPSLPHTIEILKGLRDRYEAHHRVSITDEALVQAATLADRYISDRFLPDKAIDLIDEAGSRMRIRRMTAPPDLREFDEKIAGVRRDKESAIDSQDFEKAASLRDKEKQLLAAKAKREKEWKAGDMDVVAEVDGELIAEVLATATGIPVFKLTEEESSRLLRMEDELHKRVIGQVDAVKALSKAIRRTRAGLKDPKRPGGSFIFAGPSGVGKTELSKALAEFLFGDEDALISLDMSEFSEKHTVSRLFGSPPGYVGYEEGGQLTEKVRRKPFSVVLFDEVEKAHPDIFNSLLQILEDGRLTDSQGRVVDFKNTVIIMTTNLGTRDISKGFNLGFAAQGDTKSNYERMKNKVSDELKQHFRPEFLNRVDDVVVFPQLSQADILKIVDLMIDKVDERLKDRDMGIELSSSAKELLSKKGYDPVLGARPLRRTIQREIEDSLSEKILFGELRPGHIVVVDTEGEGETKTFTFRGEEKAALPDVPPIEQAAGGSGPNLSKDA

[3] = biological target: T3, ClpP1 (Streptomyces hawaiiensis, UniProt A0A6G5RDH7); test: fluorogenic peptidase assay; format: biochemical; details: with ADEP1 as activator; 100 μM substrate, pH 7.5, 30°C
T3 construct: gene clpP; full-length unprocessed, untagged, expressed in E. coli SG1146a (clpP deletion), anion exchange; ADEP-induced processing between G24 and P25
T3 sequence (A0A6G5RDH7 1-219): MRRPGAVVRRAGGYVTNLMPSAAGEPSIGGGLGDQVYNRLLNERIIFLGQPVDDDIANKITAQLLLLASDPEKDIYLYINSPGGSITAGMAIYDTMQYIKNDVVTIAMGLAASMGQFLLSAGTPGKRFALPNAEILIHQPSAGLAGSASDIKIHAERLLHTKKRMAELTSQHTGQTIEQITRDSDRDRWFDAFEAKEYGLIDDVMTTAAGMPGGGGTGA

[4] = biological target: the molecule itself; test: native gel or EMSA; native PAGE without cross-linker, with ADEP1: ClpP1 and ClpP2 (10 μM each) with 60 μM or 25 μM ADEP1 (ClpP:ADEP1 1:3 or 1:1.25), 3 h at 30°C; immunoblot with anti-ClpP1 or anti-6His
[5] = biological target: the molecule itself; test: SEC; Superdex 200 Increase 10/300 GL; 80 μM protein, DMSO (no ADEP1), 30 min at 30°C; buffer GF (50 mM HEPES-KOH, 150 mM KCl, 20 mM MgCl2, 10% glycerol, 1 mM DTT, pH 7.5)

## C/C=C/C=C/C=C/C(=O)N[C@@H](Cc1ccccc1)C(=O)N[C@H]1COC(=O)[C@@H]2C[C@@H](C)CN2C(=O)[C@H](C)NC(=O)[C@H](C)N(C)C(=O)[C@@H]2CCCN2C1=O [ADEP1] ({Octatrienoyl(2E,4E,6E)}-FSP[NMeA]A[Pro(4R-Me)]; ester 2-C)
[1]
  peptidase activation assay, Suc-LY-AMC: ADEP1 clearly induced the hydrolysis of Suc-LY-AMC by either ClpP1 alone or by the mixed complex

## Nc1ncnc2c1ncn2[C@@H]1O[C@H](COP(=O)(O)OP(=O)(O)OP(=O)(O)O)[C@@H](O)[C@H]1O [ATP]
[2]
  ADP-Glo ATP turnover assay: directly measured the turnover of ATP to ADP by ClpC1 in casein degradation assays

## Cc1cc(=O)oc2cc(NC(=O)[C@H](Cc3ccc(O)cc3)NC(=O)[C@H](CC(C)C)NC(=O)CCC(=O)O)ccc12 [Suc-LY-AMC] (Suc-Leu-Tyr-{AMC})
[3]
  fluorogenic peptidase assay: ADEP1 clearly induced the hydrolysis of Suc-LY-AMC by either ClpP1 alone

B1: ClpP2 of Streptomyces hawaiiensis NRRL 15010, C-terminally His6-tagged (enzyme, UniProt A0A5B9BIX9 1-235, looked up)
chain: MNQFPGSGIYDRMHAVQDMSASQGRYTGPQAESRYIIPRFVERTSQGIREYDPYAKLFEERVIFLGVQIDDASANDVMAQLLCLESMDPDRDISVYINSPGGSFTALTAIYDTMQYVKPDVQTVCMGQAASAAAVLLAAGTPGKRMALPNARVLIHQPYSETGRGQVSDLEIAANEILRMRSQLEDMLAKHSTTPVEKIREDIERDKILTAEDALSYGLIDQVISTRKMDNSSLR
notes: ClpP2, Clp protease proteolytic subunit 2 of Streptomyces hawaiiensis NRRL 15010, orf CEB94_14105 of GenBank CP021978.1; from the first start codon, unprocessed; also called ClpP2-His6; ClpP2His; source: E. coli SG1146a (ΔclpP), purified (Ni-NTA); also co-expressed with ClpP1 from pETDUET-1, in lysate; not shown: His6, C-terminal, kept
[4]
  stoichiometry N: 7

B2: ClpP2 of Streptomyces hawaiiensis NRRL 15010, untagged (enzyme, UniProt A0A5B9BIX9 1-235, looked up)
chain: MNQFPGSGIYDRMHAVQDMSASQGRYTGPQAESRYIIPRFVERTSQGIREYDPYAKLFEERVIFLGVQIDDASANDVMAQLLCLESMDPDRDISVYINSPGGSFTALTAIYDTMQYVKPDVQTVCMGQAASAAAVLLAAGTPGKRMALPNARVLIHQPYSETGRGQVSDLEIAANEILRMRSQLEDMLAKHSTTPVEKIREDIERDKILTAEDALSYGLIDQVISTRKMDNSSLR
notes: ClpP2 of Streptomyces hawaiiensis NRRL 15010, orf CEB94_14105 of GenBank CP021978.1; unprocessed; calculated mass of the heptamer 182.2 kDa; also called native ClpP2; source: E. coli SG1146a (ΔclpP), purified (anion-exchange chromatography)
[5]
  stoichiometry N: 7
